Results reported in ChEMBL document CHEMBL3430912, “GSK Tres Cantos Anti-Kinetoplastid Screening (TCAKS) Data”.

Experiments:
[1] = system: Leishmania donovani; test: (§1) GSK_TCAKS: pIC50 Leishmania donovani Imaging: Amastigotes/Macrophages. Assay plates (384-well) were prepared by adding 250nL of compound to each well. For single shot assay, the final compound concentration was 5 uM. […] Automated image analysis was performed with a script developed on Acapella High Content Imaging and Analysis Software (PerkinElmer). Output: Average number of amastigotes per macrophage cell were reported for each well.; type: functional, organism-based, Homo sapiens; details: THP-1
[2] = system: Trypanosoma brucei brucei; test: GSK_TCAKS: pIC50 Trypanosoma brucei viability assay using luminiscence. Assay plates (1536-well) were prepared. T. brucei cultures were harvested and counted in a CASY cell counter. A parasite suspension was prepared at a final concentration of 5 * 10^4 cells/mL in complete HMI9 medium and 6uL was dispensed to all wells containing compounds using a Multidrop Combi dispenser. 6uL of HMI9 media with 0.4% DMSO were dispensed to control columns. Plates were incubated for 24 h at 37C, 5% CO2 then tempered for 10 min at room temperature. ATP content was quantified by adding 4 uL of CellTiter-Glo Reagent (Promega) according to the manufacturer's instructions. Luminescence was measured using a ViewLux.; type: functional, organism-based; details: Lister 427, CASY
[3] = target: Sterol 14-alpha demethylase (Trypanosoma cruzi (strain CL Brener), UniProt Q7Z1V1); test: GSK_TCAKS: pIC50 CYP51 from Trypanosoma cruzi.; type: functional
Sterol 14-alpha demethylase, sequence (Q7Z1V1 whole entry): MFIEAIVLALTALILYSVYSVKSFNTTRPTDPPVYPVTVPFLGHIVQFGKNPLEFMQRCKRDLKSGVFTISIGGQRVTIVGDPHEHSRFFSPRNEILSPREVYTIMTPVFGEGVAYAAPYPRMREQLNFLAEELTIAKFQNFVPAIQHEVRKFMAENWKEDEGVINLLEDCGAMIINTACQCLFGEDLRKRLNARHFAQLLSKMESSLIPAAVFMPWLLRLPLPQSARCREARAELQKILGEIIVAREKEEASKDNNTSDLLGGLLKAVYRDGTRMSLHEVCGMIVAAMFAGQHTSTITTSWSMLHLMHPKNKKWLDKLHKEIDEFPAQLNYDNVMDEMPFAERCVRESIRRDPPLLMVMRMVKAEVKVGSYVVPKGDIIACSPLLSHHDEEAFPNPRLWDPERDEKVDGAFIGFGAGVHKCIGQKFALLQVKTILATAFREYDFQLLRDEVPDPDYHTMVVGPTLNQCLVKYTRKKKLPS

[4] = system: Leishmania donovani; test: as §1, with “Infected Macrophages.” for “Amastigotes/Macrophages.”, “Percent” for “Average number”, “infected” for “amastigotes per”, “cells” for “cell”; type: functional, organism-based, Homo sapiens; details: THP-1
[5] = system: Trypanosoma brucei brucei; test: GSK_TCAKS: pIC50 Trypanosoma brucei viability assay using fluorescence intensity. Assay plates (1536-well) were prepared by dispensing 25nL of compound solution per well using an Echo acoustic dispenser (Labcyte).; type: functional, organism-based; details: Lister 427, 2 h
[6] = system: Trypanosoma cruzi; test: GSK_TCAKS: pIC50 Trypanosoma cruzi viability assay using beta-GAL activity. This assay was run at single shot at 5uM compound concentration per well. The biological reagents consisted of NIH-3T3 host cells and trypomastigotes parasitic cells; both cell types were set to a 3.3 * 10^5 cells/mL dilution in assay DMEM by means of a CASY cell counter device using a 60um capillary. 6 uL of the mixture were dispensed per well (about 1 * 10^3 host-cells and 1 * 10^3 parasites) with a Multidrop Combi dispenser. […] In all wells, the percentage of DMSO never exceeded 0.5%. Plates incubated for four days at 37C, 5% CO2. The substrate used for the assay fluorescence intensity (FLINT) readout was resorufin-beta-D-galactopiranoside (Sigma-Aldrich) at 5uM per well. It was diluted in PBS supplemented with the soft detergent Igepal (Fluka).; type: functional, organism-based, Mus musculus; details: Tulahuen, NIH3T3
[7] = system: Trypanosoma cruzi; test: (§2) GSK_TCAKS: pIC50 H2C9 Imaging: H9c2 Host Cardiomyocytes. […] Cells were then washed once with PBS before infection. T. cruzi trypomastigotes, collected at days 5 to 8 after infection from LLC-MK2 parasite infected cultures, were allowed to swim out for 4h at 37C from a centrifuged pellet (2,500 rpm/10 min/room temperature). Trypomastigotes were then collected and counted in a CASY Cell Counter. Trypomastigotes, in supplemented DMEM, were added to H9c2 cultures in a multiplicity of infection of 1 and incubated for 18 h. Cells were washed once with PBS before incubation of the infected H9c2 monolayer with trypsin (Life-Technologies) to detach cells from the flask. Cells were counted in a CASY Cell Counter using a 150 um capillary and their density set at 5 * 10^4 cells per mL in supplemented assay DMEM. Infected H9c2 were dispensed into 384-well poly-lysine coated assay plates at 50uL per well using a Multidrop Combi dispenser. After seeding them, the plates were incubated at 37C, 5% CO2 for 72h. Cultures were then fixed and stained by addition of 50 uL of a solution containing 8% formaldehyde and 4 uM DRAQ5 DNA dye (BioStatus, UK) per well. […] Five images were collected per well for reliable statistical analysis. Automated image analysis was performed with a script developed on Acapella High Content Imaging and Analysis Software (PerkinElmer). Output: Number of H9c2 Host Cardiomyocytes nuclei to determine drug-related cytotoxicity.; type: functional, organism-based, Rattus norvegicus; details: H9c2, 4 h
[8] = system: Leishmania donovani; test: GSK_TCAKS: pIC50 Leishmania donovani viability assay using fluorescence intensity. Assay plates (1536-well) were prepared by adding 30nL per well of compound. For single shot assay, the final compound concentration was 5uM. […] Briefly, eGFP LdBOB axenic amastigotes were harvested, fixed and counted in a CASY cell counter (Roche-Applied Science). A final concentration of 1.5 * 10^5 cells per well were prepared in amastigote media containing 500 U/mL penicillin/streptomycin (Invitrogen) and 6uL was dispensed to each experimental well using a Multidrop Combi dispenser (Thermo Scientific). 6uL of assay media was dispensed to control columns used as reference for 100% compound response. Following incubation for 72 h at 37C, 5% CO2, 2 uL of resazurin was added to each well at a final concentration of 0.5 mM in phosphate buffered saline (PBS) with IGEPAL (Sigma-Aldrich), 0.05% (v/v).; type: functional, organism-based
[9] = system: Leishmania donovani; test: as §1, with “THP-1 Host Macrophages.” for “Amastigotes/Macrophages.”, “THP-1” for “Average number of amastigotes per macrophage”, “cell count” for “cell”; type: functional, organism-based, Homo sapiens
[10] = GSK_TCAKS: pIC50 HepG2 human cell line viability assay using luminiscence. […] Seeding density was checked to ensure that new mono-layers were not more than 50% confluent at the time of harvesting. Cell suspension was added to 500 mL of the same medium at a final density of 1.2 * 10^5 cells/mL. This cell suspension was dispensed (25 uL, 3000 cells per well) into 384-well clear-bottom plates using a Multidrop Combi dispenser. Prior to addition of the cell suspension, the screening compounds (250 nL) were pre-dispensed into the plates with an Echo liquid handler. Plates were incubated for 48 h at 37C, 5% CO2. After incubation, plates equilibrated at room temperature for 30 min before proceeding to develop the luminescent signal. The signal developer, CellTiter-Glo Reagent, was allowed to equilibrate at room temperature for 30 min and added to the plates (25uL per well) using a Multidrop Combi dispenser. Plates were left for 10 min at room temperature for stabilization and then read using a ViewLux.; type: toxicity, cell-based
[11] = system: Trypanosoma cruzi; test: as §2, with “Trypanosoma cruzi” for “H2C9”, “Infected Cells.” for “H9c2 Host Cardiomyocytes.”, “percentage” for “Number”, “infected cells per well as a second infection marker.” for “H9c2 Host Cardiomyocytes nuclei to determine drug-related cytotoxicity.”; type: functional, organism-based, Rattus norvegicus; details: H9c2, 4 h
[12] = system: Trypanosoma cruzi; test: as §2, with “Trypanosoma cruzi” for “H2C9”, “Amastigotes/Cell.” for “H9c2 Host Cardiomyocytes.”, “number” for “Number”, “amastigotes per cell as infection level measurement.” for “H9c2 Host Cardiomyocytes nuclei to determine drug-related cytotoxicity.”; type: functional, organism-based, Rattus norvegicus; details: H9c2, 4 h

Compound | IC50 [1] | IC50 [2] | IC50 [3] | IC50 [4] | IC50 [5] | IC50 [6] | IC50 [7] | IC50 [8] | IC50 [9] | IC50 at 48 h [10] | IC50 [11] | IC50 [12]
CC(C)n1c(-c2nonc2N)nc2cccc(OCCN3CCCC3)c21 | 20 µM | 0.794 µM | 39.8 µM | 31.6 µM | 0.794 µM | 10 µM | 31.6 µM | > 50.1 µM | 31.6 µM | > 100 µM | 15.8 µM | 25.1 µM
Cc1ncsc1CNc1cnc(-c2ccc3c(c2)OCCO3)c(-c2cnn(C)c2)c1 | 12.6 µM | 0.2 µM | 7.94 µM | 15.8 µM | 0.126 µM | 12.6 µM | > 50.1 µM | 25.1 µM | 15.8 µM | > 100 µM | 39.8 µM | 20 µM
Cc1cc(Nc2cc(C3CC3)[nH]n2)nc(N2CCCC2)n1 | 0.0501 µM | 0.0631 µM | > 100 µM | 0.158 µM | 0.0501 µM | 0.0794 µM | 0.251 µM | 0.794 µM | 0.126 µM | 31.6 µM | 0.1 µM | 0.0794 µM
Cc1cc(Nc2cc(C3CC3)[nH]n2)nc(N2CCC[C@H]2C(N)=O)n1 | 0.0794 µM | 0.0631 µM | > 100 µM | 0.2 µM | 0.0126 µM | 0.126 µM | 0.126 µM | 0.631 µM | 0.126 µM | > 100 µM | 0.0631 µM | 0.02 µM
CS(=O)(=O)N1CCC(Nc2ncc(Br)c(Nc3cccc(F)c3C(N)=O)n2)CC1 | 0.794 µM | 0.0158 µM | > 100 µM | 1.58 µM | 0.01 µM | 0.316 µM | 0.158 µM | 0.1 µM | 1 µM | > 100 µM | 1 µM | 0.398 µM
NC(=O)c1cc(F)ccc1Nc1nc(N[C@H]2CC[C@H](O)CC2)ncc1Br | 0.631 µM | 0.316 µM | 10 µM | 0.794 µM | 0.0794 µM | 2.51 µM | 0.501 µM | 1.58 µM | 0.398 µM | 50.1 µM | 2 µM | 0.794 µM
O=C(c1cccc(Nc2ncc(-c3ccc4c(c3)OCO4)cn2)c1)N1CCSC1 | 1 µM | > 39.8 µM | 15.8 µM | 2 µM | 12.6 µM | 2.51 µM | 1 µM | 1.26 µM | 12.6 µM | 10 µM | 0.251 µM | 0.2 µM
NC(=O)c1cc(F)ccc1Nc1nc(N[C@H]2CC[C@H](O)CC2)ncc1Cl | 0.794 µM | 0.631 µM | 31.6 µM | 1.26 µM | 0.158 µM | 3.98 µM | 1.58 µM | 3.16 µM | 0.631 µM | > 100 µM | 5.01 µM | 1.58 µM
COc1ccc(Nc2nc(N[C@H]3CC[C@H](O)CC3)ncc2Br)c(C(N)=O)c1 | 0.631 µM | 0.251 µM | 12.6 µM | 1 µM | 0.1 µM | 3.98 µM | 0.794 µM | 3.16 µM | 0.398 µM | > 100 µM | 3.16 µM | 2 µM
COc1ccc(OC)c(S(=O)(=O)N(Cc2c(F)cccc2F)[C@@H]2CCN(C#N)C2)c1 | 20 µM | 0.794 µM | > 100 µM | 25.1 µM | 0.631 µM | 6.31 µM | 15.8 µM | 15.8 µM | 20 µM | 79.4 µM | 12.6 µM | 6.31 µM
COc1ccc2ncc(=O)n(CCN3CC[C@H](NCc4ncc(Cl)c5[nH]ncc45)[C@H](O)C3)c2n1 | > 50.1 µM | 0.501 µM | > 100 µM | > 50.1 µM | 0.316 µM | 3.98 µM | > 50.1 µM | > 50.1 µM | > 50.1 µM | > 100 µM | 3.16 µM | 1.58 µM
NC(=O)c1ncccc1Nc1nc(N[C@H]2CC[C@H](O)CC2)ncc1Br | 0.631 µM | 0.631 µM | > 100 µM | 1.26 µM | 0.316 µM | 1.58 µM | 0.631 µM | 1.26 µM | 0.398 µM | > 100 µM | 2 µM | 0.501 µM
CCc1cc(C(=O)Nc2nccn2-c2ccccc2)cs1 | 5.01 µM | 3.98 µM | > 100 µM | 12.6 µM | 3.16 µM | 3.16 µM | 20 µM | 6.31 µM | 31.6 µM | > 100 µM | 5.01 µM | 3.16 µM
CC(C)c1cc(Nc2cc(Cc3ccccc3)nc(N[C@H]3CC[C@H](O)CC3)n2)n[nH]1 | 0.0398 µM | 0.1 µM | 20 µM | 0.0631 µM | 0.0794 µM | 0.0794 µM | 0.00631 µM | 3.16 µM | 0.02 µM | 31.6 µM | 0.0794 µM | 0.0316 µM
CS(=O)(=O)N[C@H]1CC[C@H](Nc2ncc(Br)c(Nc3ccccc3C(N)=O)n2)CC1 | 0.794 µM | 0.0794 µM | > 100 µM | 2 µM | 0.158 µM | 7.94 µM | 0.501 µM | 1 µM | 0.501 µM | > 100 µM | 5.01 µM | 2 µM
O=C1NCc2cccc(Nc3nc(N[C@H]4CC[C@H](O)CC4)ncc3Br)c21 | 0.126 µM | 0.126 µM | > 100 µM | 0.158 µM | 0.0631 µM | 0.631 µM | 0.1 µM | 0.794 µM | 0.1 µM | > 100 µM | 1 µM | 0.398 µM
NS(=O)(=O)c1ccc(Nc2ncc3cccc(OC4CCNCC4)c3n2)cc1 | 15.8 µM | 0.316 µM | > 100 µM | 20 µM | 0.2 µM | 1.78 µM | 0.631 µM | 39.8 µM | 1 µM | > 100 µM | 0.0501 µM | 0.02 µM
